Test results as given in ChEMBL document CHEMBL5608241, “Discovery of Novel Non-nucleoside DOT1LR231Q Inhibitors with Improved Pharmacokinetic Properties and Anti-lung Cancer Efficacy” (J Med Chem, 2024).

Columns and labels:
NCI-H460 [1] = test: Antiproliferative activity against human NCI-H460 cells harboring wildtype DOT1L (unknown origin) (1 to 416 residues) assessed as inhibition of cell proliferation incubated for 72 hrs by CCK-8 assay; format: functional, cell-based; conditions: NCI-H460, 72 h
NCI-H460 [2] = test: Antiproliferative activity against human NCI-H460 cells harboring DOT1L R231Q mutant (unknown origin) (1 to 416 residues) assessed as inhibition of cell proliferation incubated for 72 hrs by CCK-8 assay; format: functional, cell-based; conditions: NCI-H460, 72 h
NCI-H460 [3] = test: Antiproliferative activity against human NCI-H460 cells harboring DOT1L R231Q mutant assessed as inhibition of cell proliferation incubated for 72 hrs by CCK-8 assay; format: functional, cell-based; conditions: NCI-H460, 72 h
NCI-H460 [4] = test: Antitumor activity against human NCI-H460 cells harboring DOT1L R231Q OE mutant xenografted in male BALB/c-nu mouse model assessed as tumor growth inhibition at 20 mg/kg, ip administered five times a week for 3 weeks relative to control; format: functional; conditions: NCI-H460, 504 h, read-out: TGI

| IC50 (NCI-H460 [1]) | IC50 (NCI-H460 [2]) | IC50 (NCI-H460 [3]) | Compound | inhibition in vivo at 20 mg/kg (NCI-H460 [4]) |
| --- | --- | --- | --- | --- |
| 6.47 µM | 14.5 µM | – | CC(C)N(CCCNC(=O)Nc1ccc(C(C)(C)C)cc1)CC1(O)CCN(c2nc(Cl)nc3[nH]ncc23)C1 (stereo unspecified) | – |
| 54.4 µM | 83.9 µM | – | CC(C)N(CCCNC(=O)Nc1ccc(C(C)(C)C)cc1)CC1(O)CCN(c2ncnc3[nH]ccc23)C1 (stereo unspecified) | – |
| 6.46 µM | 17.6 µM | – | CN(CCCNC(=O)Nc1ccc(C(C)(C)C)cc1)CC1(O)CCN(c2nc(Cl)nc3[nH]cnc23)C1 (stereo unspecified) | – |
| 8.83 µM | 36 µM | – | CC(C)N(CCCNC(=O)Nc1ccc(C(C)(C)C)cc1)C[C@H]1O[C@@H](n2cc(Br)c3c(N)ncnc32)[C@H](O)[C@@H]1O | – |
| 31.2 µM | 52.6 µM | – | CC(C)(C)c1ccc(NC(=O)NCCCN(CCO)CC2(O)CCN(c3nc(N)nc4[nH]cnc34)C2)cc1 (stereo unspecified) | – |
| 64.5 µM | 23.2 µM | – | CC(C)(C)c1ccc(NC(=O)NCCCN(CCC(=O)N2CCSCC2)CC2(O)CCN(c3nc(Cl)nc4[nH]cnc34)C2)cc1 (stereo unspecified) | – |
| 66.3 µM | 83.2 µM | – | CN(CCCNC(=O)Nc1ccc(C(C)(C)C)cc1)CC1CCCN(C(=O)c2ccc[nH]c2=O)C1 (stereo unspecified) | – |
| > 100 µM | > 100 µM | – | COC(=O)CCN(CCCNC(=O)Nc1ccc(C(C)(C)C)cc1)CC1(O)CCN(c2ncnc3[nH]cnc23)C1 (stereo unspecified) | – |
| > 100 µM | 95.5 µM | – | CC(C)(C)c1ccc(NC(=O)NCCCN(CCC(=O)N2CCOCC2)CC2(O)CCN(c3ncnc4[nH]cnc34)C2)cc1 (stereo unspecified) | – |
| 64.7 µM | 66.5 µM | – | CC(C)N(CCCNC(=O)Nc1ccc(C(C)(C)C)cc1)CC1CCCN(c2ncnc3[nH]cnc23)C1 (stereo unspecified) | – |
| 7.56 µM | 16 µM | – | CC(C)N(CCCNC(=O)Nc1ccc(C(C)(C)C)cc1)CC1(O)CCN(c2nc(Cl)nc3sccc23)C1 (stereo unspecified) | – |
| > 100 µM | 85.5 µM | – | CC(C)(C)C(=O)Nc1ccc2[nH]c(CN3CCC(N(CCCN4CCOCC4)CC4CCCN(c5cc(C#N)ccn5)C4)CC3)nc2c1 (stereo unspecified) | – |
| 53.9 µM | 38.4 µM | – | CC(C)(C)c1ccc(NC(=O)NCCCN(CCC(=O)N2CCOCC2)CC2(O)CCN(c3nc(Cl)nc4[nH]cnc34)C2)cc1 (stereo unspecified) | – |
| 23.8 µM | 44.9 µM | – | CN(CCCNC(=O)Nc1ccc(C(C)(C)C)cc1)CC1(O)CCN(c2nc(N)nc3[nH]cnc23)C1 (stereo unspecified) | – |
| 21.8 µM | 38.7 µM | – | CC(C)N(CCCNC(=O)Nc1ccc(C(C)(C)C)cc1)CC1CCCN(c2nc(Cl)nc3[nH]cnc23)C1 (stereo unspecified) | – |
| 25.6 µM | 35.7 µM | – | CC(C)N(CCCNC(=O)Nc1ccc(C(C)(C)C)cc1)CC1(O)CCN(c2nc(N)nc3[nH]cnc23)C1 (stereo unspecified) | – |
| > 100 µM | 52 µM | – | CC(C)(C)C(=O)Nc1ccc2[nH]c(CN3CCC(N(CCCN4CCOCC4)CC4CCCN(c5nc(Cl)nc6[nH]ncc56)C4)CC3)nc2c1 (stereo unspecified) | – |
| 72.6 µM | 30.9 µM | – | COC(=O)CCN(CCCNC(=O)Nc1ccc(C(C)(C)C)cc1)CC1(O)CCN(c2nc(Cl)nc3[nH]cnc23)C1 (stereo unspecified) | – |
| > 100 µM | > 100 µM | – | CC(C)(C)C(=O)Nc1ccc2[nH]c(CN3CCC(N(CCCN4CCOCC4)CC4CCCN(C(=O)c5cnccn5)C4)CC3)nc2c1 (stereo unspecified) | – |
| > 100 µM | 91.2 µM | – | CN(CCCNC(=O)Nc1ccc(C(C)(C)C)cc1)CC1CCCN(c2cc(C#N)ccn2)C1 (stereo unspecified) | – |
| 68.6 µM | 64.3 µM | – | CN(CCCNC(=O)Nc1ccc(C(C)(C)C)cc1)CC1CCCN(c2ncnc3[nH]cnc23)C1 (stereo unspecified) | – |
| 44 µM | 16.2 µM | – | CC(C)(C)c1ccc(NC(=O)NCCCN(CCC(=O)N2CCSCC2)CC2(O)CCN(c3nc(Cl)nc4[nH]ncc34)C2)cc1 (stereo unspecified) | – |

| IC50 (NCI-H460 [1]) | IC50 (NCI-H460 [2]) | IC50 (NCI-H460 [3]) | Compound | inhibition in vivo at 20 mg/kg (NCI-H460 [4]) |
| --- | --- | --- | --- | --- |
| 17.6 µM | 25.6 µM | – | CC(C)N(CCCNC(=O)Nc1ccc(C(C)(C)C)cc1)CC1(O)CCN(c2nc(Cl)nc3[nH]ccc23)C1 (stereo unspecified) | – |
| 35.2 µM | 45.3 µM | – | CC(C)N(CCCNC(=O)Nc1ccc(C(C)(C)C)cc1)CC1(O)CCN(c2ncnc3[nH]cc(Br)c23)C1 (stereo unspecified) | – |
| 38.7 µM | 40.6 µM | – | CN(CCCNC(=O)Nc1ccc(C(C)(C)C)cc1)CC1(O)CCN(c2ncnc3[nH]cc(Br)c23)C1 (stereo unspecified) | – |
| – | – | 6.18 µM | CC(C)(C)C(=O)Nc1ccc2nc(CN3CCC(N(CCCN4CCOCC4)C[C@H]4O[C@@H](n5cnc6c(N)ncnc65)[C@H](O)[C@@H]4O)CC3)[nH]c2c1 | 54.4% |
| > 100 µM | > 100 µM | – | CC(C)N(CCCNC(=O)Nc1ccc(C(C)(C)C)cc1)CC1CCCN(c2cc(C#N)ccn2)C1 (stereo unspecified) | – |
| > 100 µM | 73.8 µM | – | CC(C)(C)C(=O)Nc1ccc2[nH]c(CN3CCC(N(CCCN4CCOCC4)CC4CCCN(c5ncnc6[nH]cnc56)C4)CC3)nc2c1 (stereo unspecified) | – |
| > 100 µM | 48.1 µM | – | CC(C)(C)C(=O)Nc1ccc2[nH]c(CN3CCC(N(CCCN4CCOCC4)CC4CCCN(c5nc(Cl)nc6[nH]cnc56)C4)CC3)nc2c1 (stereo unspecified) | – |
| 31.4 µM | 9.59 µM | – | CC(C)(C)c1ccc(NC(=O)NCCCN(CCCN2CCOCC2)CC2(O)CCN(c3nc(Cl)nc4[nH]cnc34)C2)cc1 (stereo unspecified) | – |
| > 100 µM | 73.1 µM | – | CC(C)(C)c1ccc(NC(=O)NCCCN(CCCN2CCOCC2)CC2(O)CCN(c3ncnc4[nH]cnc34)C2)cc1 (stereo unspecified) | – |
| 75.7 µM | 81.2 µM | – | CC(C)N(CCCNC(=O)Nc1ccc(C(C)(C)C)cc1)CC1CCCN(C(=O)c2ccc[nH]c2=O)C1 (stereo unspecified) | – |
| > 100 µM | > 100 µM | – | CN(CCCNC(=O)Nc1ccc(C(C)(C)C)cc1)CC1CCCN(C(=O)c2cnccn2)C1 (stereo unspecified) | – |
| 8.51 µM | 21.8 µM | – | CN(CCCNC(=O)Nc1ccc(C(C)(C)C)cc1)CC1(O)CCN(c2nc(Cl)nc3[nH]ncc23)C1 (stereo unspecified) | – |
| 23.3 µM | 37.7 µM | – | CN(CCCNC(=O)Nc1ccc(C(C)(C)C)cc1)CC1CCCN(c2nc(Cl)nc3[nH]cnc23)C1 (stereo unspecified) | – |
| 5.33 µM | 13.8 µM | – | CC(C)N(CCCNC(=O)Nc1ccc(C(C)(C)C)cc1)CC1(O)CCN(c2nc(Cl)nc3[nH]cnc23)C1 (stereo unspecified) | – |
| > 100 µM | 89.6 µM | – | CC(C)(C)c1ccc(NC(=O)NCCCN(CCC(=O)N2CCSCC2)CC2(O)CCN(c3ncnc4[nH]cnc34)C2)cc1 (stereo unspecified) | – |
| 45.6 µM | 36.5 µM | – | CC(C)(C)c1ccc(NC(=O)NCCCN(CCCN2CCOCC2)CC2(O)CCN(c3ncnc4[nH]cc(Br)c34)C2)cc1 (stereo unspecified) | – |
| 18.9 µM | 7.15 µM | – | CC(C)(C)c1ccc(NC(=O)NCCCN(CCCN2CCOCC2)CC2(O)CCN(c3nc(Cl)nc4[nH]ncc34)C2)cc1 (stereo unspecified) | – |
| 41.3 µM | 47.1 µM | – | CC(C)(C)c1ccc(NC(=O)NCCCN(CCO)CC2(O)CCN(c3ncnc4[nH]cc(Br)c34)C2)cc1 (stereo unspecified) | – |
| > 100 µM | 29.6 µM | – | CC(C)(C)c1ccc(NC(=O)NCCCN(CCCN2CCOCC2)CC2(O)CCN(c3nc(N)nc4[nH]cnc34)C2)cc1 (stereo unspecified) | – |
| 61.7 µM | 28.4 µM | – | COC(=O)CCN(CCCNC(=O)Nc1ccc(C(C)(C)C)cc1)CC1(O)CCN(c2nc(Cl)nc3[nH]ncc23)C1 (stereo unspecified) | – |
| 27.7 µM | 50.8 µM | – | CN(CCCNC(=O)Nc1ccc(C(C)(C)C)cc1)CC1(O)CCN(c2nc(Cl)nc3ccsc23)C1 (stereo unspecified) | – |
